Measurements reported in ChEMBL document CHEMBL1150106, “Carvone and perillaldehyde interfere with the serum-induced formation of filamentous structures in Candida albicans at substantially lower concentrations than those causing significant inhibition of growth” (J Nat Prod, 2002).
Active and inactive are the calls of the source. No cut-off for these calls is given here.

Tests used:
Format in all cases: functional, organism-based
[1] = tested on: Candida albicans; assay: Anticandidal activity against Candida albicans H317 assessed as inhibition of transformation of organism from cellular yeast to filamentous form at 125 uM preincubated for 2 hrs before addition of fetal bovine serum measured after 22 hrs by phase contrast microscopy
[2] = tested on: Candida albicans; assay: Growth inhibition of cellular yeast form of Candida albicans H317 at 5 mM after 2 hrs
[3] = tested on: Candida albicans; assay: Anticandidal activity against Candida albicans H317 assessed as inhibition of transformation of organism from cellular yeast to filamentous form at 250 uM preincubated for 2 hrs before addition of fetal bovine serum measured after 22 hrs by phase contrast microscopy

Structure (SMILES)	Activity [1]	Activity [2]	Activity [3]
C=C(C)[C@@H]1CC=C(C=O)CC1	Active	Active	–
C=C(C)[C@H]1CC=C(C)C(=O)C1	–	Active	Active
